The source of these data is patent US20250268474A1, “Systems and Methods for Detecting Fibrosis” (3HELIX, INC., priority 2021, published 2025).

Where no end group is shown, it is not given here. [ ]: non-standard residue; d: D form. Pro(cis-4-F) = O=C(O)[C@@H]1C[C@H](F)CN1; Hyp = O=C(O)[C@@H]1C[C@@H](O)CN1

The assay relates to damaged/denatured collagen. The experiment in a line: LCHP in vivo imaging (fundus / ICG angiography) in CNV mice. Particulars: spontaneous CNV (JR5558), FIG. 6A; 1 nmol per animal, tail vein.

On to “sulfo-Cy7.5-GGG-OfGGOfGfGfOfOGOfGOOfGGOOff ({sulfo‑Cy7.5}-GGG[Hyp][Pro(cis-4-F)]GG[Hyp][Pro(cis-4-F)]G[Pro(cis-4-F)]G[Pro(cis-4-F)][Hyp][Pro(cis-4-F)][Hyp]G[Hyp][Pro(cis-4-F)]G[Hyp][Hyp][Pro(cis-4-F)]GG[Hyp][Hyp][Pro(cis-4-F)][Pro(cis-4-F)]; not fully specified; printed as sulfo-Cy7.5-GGG-OfGGOfGfGfOfOGOfGOOfGGOOff) [scrambled sCy7.5-CHP]”, for which the “signal in IR, FA and ICGA imaging” value is reported as “no significant signal was detected”.
